Positions of bridges follow the written chain, without caps; N, C: chain ends. Non-standard residues stand in square brackets, D forms with d. Residues, ends and D or L forms follow the SMILES beside them. Trp(1-Me) = Cn1cc(C[C@H](N)C(=O)O)c2ccccc21; Sar = CNCC(=O)O
Tests used:
[1] = tested on: alternative complement pathway; assay: Ex vivo alternative pathway complement activity (WIESLAB kit) after s.c. dosing in non-human primates; set-up: species or system Cynomolgus monkeys (Macaca fascicularis); details: NHP, subcutaneous 1840 nmol/kg, FIG. 1a-f
Method: FIG. 1(a-f): Normalized “ex vivo” activity of the alternative complement pathway over time after administration of a test compound at time 0 to one or two non-human primates. Compounds were given subcutaneously at a dose of 1840 nmol/kg. Complement activity (alternative pathway) was measured using the Wieslab kit. Activity was normalized using the predose (0) sample (set to 100%) and the negative control included in the kit. Normalized activity or average normalized activity for both animals and standard deviation is shown.
Healthy male Cynomolgus monkeys (Macaca fascicularis) received single subcutaneous administrations of each test substance. Compounds were formulated in 20 mM phosphate adjusted with NaOH to pH 7.5 and mannitol for isotonicity and dosed at 1840 nmol/kg. Blood was collected from a femoral vein from each animal at the following times: Pre-dose, 1, 2, 4, 8, 24, 48, 72, 96 and 120 h (10 sampling times). Blood was collected into serum separation tubes and allowed to clot at room temperature. The tubes were centrifuged and resulting serum was aliquoted and snap-frozen over dry-ice and stored at nominally −80° C. until analysis. All NHP studies were performed in accordance with animal welfare laws and regulations, including approval of the study by a local ethical review process.
Serum isolated from non-human primates at specific time points after dosing were analyzed for alternative pathway complement activity using the Complement system Alternative Pathway WIESLAB® kit from Svar Life Science (previously Euro diagnostic AB, Sweden) following the manufacturer's protocol. Briefly, serum samples or controls were diluted in buffer and incubated in microtitre strips coated with specific activators of the alternative pathway. The wells were washed and formed C5b-9 was detected using included colorimetric reagents. Absorbance at 405 nm was measured. The percent activity of the alternative complement pathway was calculated for each animal and timepoint relative to the pre-dose activity (0 hours) of the individual animal with subtraction of the negative control. […]

[2] = Solubility test at 10 mg/mL (visual inspection and light scattering); format: physicochemical; details: for Solubility, Condition 1: Acetate pH 4; for Solubility, Condition 2: Acetate pH 5; for Solubility, Condition 3: Phosphate pH 6; for Solubility, Condition 4: Phosphate pH 7; for Solubility, Condition 5: Phosphate pH 7.5
[3] = tested on: classical complement pathway; assay: In vitro haemolysis assay (inhibition of classical complement pathway); format: cell-based, human; details: human serum, sensitized sheep red blood cells; Table 3, given as upper bounds; read-out: IC50, inhibition of hemolysis
Method in brief: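 Compound dilutions preincubated 15 min at room temperature with diluted human serum (titrated per batch for 70-90% maximal haemolysis), then antibody-sensitized sheep RBC (10^7/well) added for 30 min at 37 °C in Tris/casein buffer, pH 7.4. Stopped with EDTA; haemolysis read at 405 nm; IC50 by 4PL fit.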

[4] = biological target: T1, Human C3 (Complement tech cat #A113c) (human, UniProt P01024 23-1663); assay: cell-based or functional assay
T1 sequence (P01024 23-1663 limits assumed): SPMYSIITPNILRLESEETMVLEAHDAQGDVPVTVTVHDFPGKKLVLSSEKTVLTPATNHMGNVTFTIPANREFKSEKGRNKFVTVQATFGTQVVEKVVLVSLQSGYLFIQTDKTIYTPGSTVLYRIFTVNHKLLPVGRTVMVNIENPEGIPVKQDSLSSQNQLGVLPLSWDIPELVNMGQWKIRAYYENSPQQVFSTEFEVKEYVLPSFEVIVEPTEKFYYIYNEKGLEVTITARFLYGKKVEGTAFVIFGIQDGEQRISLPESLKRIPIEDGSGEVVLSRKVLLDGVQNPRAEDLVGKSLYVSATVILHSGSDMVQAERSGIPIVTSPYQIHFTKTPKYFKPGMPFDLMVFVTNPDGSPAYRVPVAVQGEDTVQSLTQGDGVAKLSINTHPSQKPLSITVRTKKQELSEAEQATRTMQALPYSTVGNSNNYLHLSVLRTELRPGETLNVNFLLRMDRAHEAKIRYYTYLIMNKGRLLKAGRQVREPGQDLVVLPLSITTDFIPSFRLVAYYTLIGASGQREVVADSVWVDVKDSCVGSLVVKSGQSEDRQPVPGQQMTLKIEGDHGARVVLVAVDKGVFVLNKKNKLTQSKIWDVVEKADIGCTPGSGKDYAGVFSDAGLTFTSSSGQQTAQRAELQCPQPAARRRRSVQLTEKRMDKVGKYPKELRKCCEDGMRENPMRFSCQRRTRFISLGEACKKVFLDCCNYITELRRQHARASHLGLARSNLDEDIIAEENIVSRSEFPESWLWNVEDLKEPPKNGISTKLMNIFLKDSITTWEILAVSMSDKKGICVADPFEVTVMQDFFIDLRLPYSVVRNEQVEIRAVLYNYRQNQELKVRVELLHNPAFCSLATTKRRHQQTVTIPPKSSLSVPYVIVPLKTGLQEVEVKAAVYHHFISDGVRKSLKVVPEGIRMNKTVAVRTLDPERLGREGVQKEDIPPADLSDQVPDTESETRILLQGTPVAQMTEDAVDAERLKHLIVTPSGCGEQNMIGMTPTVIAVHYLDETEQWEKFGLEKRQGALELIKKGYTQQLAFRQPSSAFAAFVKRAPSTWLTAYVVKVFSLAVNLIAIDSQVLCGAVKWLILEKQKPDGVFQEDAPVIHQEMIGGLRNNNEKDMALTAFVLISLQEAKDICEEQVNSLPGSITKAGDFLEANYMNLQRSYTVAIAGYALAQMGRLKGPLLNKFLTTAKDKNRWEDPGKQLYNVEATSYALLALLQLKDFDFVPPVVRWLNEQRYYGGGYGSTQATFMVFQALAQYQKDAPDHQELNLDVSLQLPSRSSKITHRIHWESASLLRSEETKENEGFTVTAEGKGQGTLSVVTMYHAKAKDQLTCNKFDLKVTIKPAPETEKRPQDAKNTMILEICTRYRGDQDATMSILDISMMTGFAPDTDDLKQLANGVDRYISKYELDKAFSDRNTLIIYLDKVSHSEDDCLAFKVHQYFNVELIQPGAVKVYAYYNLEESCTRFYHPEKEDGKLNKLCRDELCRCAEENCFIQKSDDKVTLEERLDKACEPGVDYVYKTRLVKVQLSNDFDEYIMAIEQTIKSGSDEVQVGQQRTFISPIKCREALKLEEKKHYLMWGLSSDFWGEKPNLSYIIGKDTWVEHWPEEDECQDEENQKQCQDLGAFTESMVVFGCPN

[5] = biological target: T1, Human C3 (Complement tech cat #A113c); assay: cell-based or functional assay; remark: listed apart in the source

Q: What does the source list for `CC[C@H](C)[C@@H]1NC(=O)[C@@H](NC(=O)[C@H](Cc2ccccc2)NC(C)=O)CSSC[C@@H](C(=O)N[C@H](C(=O)NCC(=O)N[C@@H](C)C(=O)N[C@@H](CCC(=O)O)C(=O)N[C@@H](CO)C(N)=O)[C@@H](C)O)NC(=O)[C@H](CCCNC(=N)N)NC(=O)[C@H](Cc2c[nH]cn2)NC(=O)[C@H](CCC(=O)O)NC(=O)CNC(=O)[C@H](Cc2c[nH]c3ccccc23)NC(=O)[C@H](CC(=O)O)NC(=O)[C@H](CCC(N)=O)NC(=O)[C@H](Cc2cn(C)c3ccccc23)NC1=O` [Compound 61] (Ac-FCI[Trp(1-Me)]QDWGEHRCTGAES-NH2; disulfide 2-12)?
A: duration of action (alternative pathway complement activity) [1]: relatively short duration of action; Solubility, Condition 1 [2]: − (“−” denotes lack of solubility at the given condition, as UV absorbance at 340 nm exceeds 0.1 AU and/or it is visibly turbid or contains particles); Solubility, Condition 2 [2]: − (“−” denotes lack of solubility at the given condition, as UV absorbance at 340 nm exceeds 0.1 AU and/or it is visibly turbid or contains particles); Solubility, Condition 3 [2]: + (“+” denotes solubility at the given condition, as determined by UV absorbance being less than 0.1 AU at 340 nm and the sample being clear when manually inspected); Solubility, Condition 4 [2]: + (“+” denotes solubility at the given condition, as determined by UV absorbance being less than 0.1 AU at 340 nm and the sample being clear when manually inspected); Solubility, Condition 5 [2]: + (“+” denotes solubility at the given condition, as determined by UV absorbance being less than 0.1 AU at 340 nm and the sample being clear when manually inspected); IC50 [3]: < 100 nM

Q: For `CC[C@H](C)[C@@H]1NC(=O)[C@@H](NC(=O)[C@H](Cc2ccc(O)cc2)NC(=O)[C@H](C)NC(=O)[C@H](CO)NC(=O)CNC(=O)[C@H](CCC(=O)O)NC(C)=O)CSSC[C@@H](C(=O)N(C)CC(=O)N[C@@H](CCC(=O)O)C(N)=O)NC(=O)[C@H](CCCNC(=N)N)NC(=O)[C@H](Cc2c[nH]cn2)NC(=O)[C@H](CCC(=O)O)NC(=O)CNC(=O)[C@H](Cc2c[nH]c3ccccc23)NC(=O)[C@H](CC(=O)O)NC(=O)[C@H](CCC(N)=O)NC(=O)[C@H](Cc2cn(C)c3ccccc23)NC1=O` [Compound 54] (Ac-EGSAYCI[Trp(1-Me)]QDWGEHRC[Sar]E-NH2; disulfide 6-16), which “duration of action (alternative pathway complement activity)” value [1] is on record?
A: Its value is “relatively short duration of action”.

Q: What about the “Solubility, Condition 1” value [2] of the same molecule?
A: Its value is “− (“−” denotes lack of solubility at the given condition, as UV absorbance at 340 nm exceeds 0.1 AU and/or it is visibly turbid or contains particles)”.

Q: What about the “Solubility, Condition 2” value [2] of the same molecule?
A: Its value is “− (“−” denotes lack of solubility at the given condition, as UV absorbance at 340 nm exceeds 0.1 AU and/or it is visibly turbid or contains particles)”.

Q: And the “Solubility, Condition 3” value [2]?
A: The value was “+ (“+” denotes solubility at the given condition, as determined by UV absorbance being less than 0.1 AU at 340 nm and the sample being clear when manually inspected)”.

Q: What about the “Solubility, Condition 4” value [2] of the same molecule?
A: The value was “+ (“+” denotes solubility at the given condition, as determined by UV absorbance being less than 0.1 AU at 340 nm and the sample being clear when manually inspected)”.

Q: What about the “Solubility, Condition 5” value [2] of the same molecule?
A: Its value is “+ (“+” denotes solubility at the given condition, as determined by UV absorbance being less than 0.1 AU at 340 nm and the sample being clear when manually inspected)”.

Q: And the IC50 [3]?
A: Its IC50 is under 100 nM.

B1: Compound 1 (peptide)
peptide: Ac-ICIWQDWGAHRCT-NH2
modifications: disulfide 2-12
SMILES: CC[C@H](C)[C@H](NC(C)=O)C(=O)N[C@H]1CSSC[C@@H](C(=O)N[C@H](C(N)=O)[C@@H](C)O)NC(=O)[C@H](CCCNC(=N)N)NC(=O)[C@H](Cc2c[nH]cn2)NC(=O)[C@H](C)NC(=O)CNC(=O)[C@H](Cc2c[nH]c3ccccc23)NC(=O)[C@H](CC(=O)O)NC(=O)[C@H](CCC(N)=O)NC(=O)[C@H](Cc2c[nH]c3ccccc23)NC(=O)[C@H]([C@@H](C)CC)NC1=O
Q: Which “CP hemolysis IC50” value [4] does the source give for B1 here?
A: The value was 150 nM.

Q: And the “inhibition of hemolysis IC50” value [5]?
A: Its value is under 250 nM.

From patent US11965039B2, “Compstatin analogues and their medical uses” (priority 2018, dated 2024)
